Earlier results as cited in patent US20230149510A1, “METHOD FOR ALLEVIATING ARTHRITIS USING EPIDERMAL GROWTH FACTOR” (Lovin BioMed Co., Ltd., priority 2021, published 2023).

Key:
[1] = test system: collagen-induced arthritis; settings: Swanson C. D. et al. (2012); cited from earlier work
OA = settings: Sun H. et al. (2018); cited from earlier work

Which “effect on collagen-induced arthritis” value [1] does the source give for `C#Cc1cccc(Nc2ncnc3cc(OCCOC)c(OCCOC)cc23)c1` [erlotinib] here?
The value was “can alleviate collagen-induced arthritis”.

With `COc1cc2ncnc(Nc3ccc(F)c(Cl)c3)c2cc1OCCCN1CCOCC1` [gefitinib] as the compound, how does the “effect on symptoms in mice with OA” value (OA) read?
Its value is “can improve symptoms in mice with OA”.
